Laboratory results reported in ChEMBL document CHEMBL4350965 (J Med Chem, 2019).
pIC50: −log10 of the molar value.

How the values were obtained:
[1] = Stability in rat liver microsomes assessed as parent compound remaining at 1 uM measured after 30 mins in presence of NADPH generating system
[2] = Stability in human liver microsomes assessed as parent compound remaining at 1 uM measured after 30 mins in presence of NADPH generating system
[3] = Inhibition of PI3Kgamma in […] RAW264.7 cells assessed as reduction in C5a-stimulated AKT phosphorylation at Ser473 residue preincubated for 30 mins followed by C5a-stimulation and measured after 5 mins; format: cell-based
[4] = biological target: T1, Phosphatidylinositol 4,5-bisphosphate 3-kinase catalytic subunit delta isoform (Homo sapiens, UniProt O00329); test: Inhibition of PI3Kdelta in human Ramos cells assessed as reduction in antihuman IgM-stimulated AKT phosphorylation at Ser473 residue preincubated for 60 mins followed by antihuman IgM stimulation and measured after 15 mins; format: cell-based
T1 sequence (O00329 whole entry): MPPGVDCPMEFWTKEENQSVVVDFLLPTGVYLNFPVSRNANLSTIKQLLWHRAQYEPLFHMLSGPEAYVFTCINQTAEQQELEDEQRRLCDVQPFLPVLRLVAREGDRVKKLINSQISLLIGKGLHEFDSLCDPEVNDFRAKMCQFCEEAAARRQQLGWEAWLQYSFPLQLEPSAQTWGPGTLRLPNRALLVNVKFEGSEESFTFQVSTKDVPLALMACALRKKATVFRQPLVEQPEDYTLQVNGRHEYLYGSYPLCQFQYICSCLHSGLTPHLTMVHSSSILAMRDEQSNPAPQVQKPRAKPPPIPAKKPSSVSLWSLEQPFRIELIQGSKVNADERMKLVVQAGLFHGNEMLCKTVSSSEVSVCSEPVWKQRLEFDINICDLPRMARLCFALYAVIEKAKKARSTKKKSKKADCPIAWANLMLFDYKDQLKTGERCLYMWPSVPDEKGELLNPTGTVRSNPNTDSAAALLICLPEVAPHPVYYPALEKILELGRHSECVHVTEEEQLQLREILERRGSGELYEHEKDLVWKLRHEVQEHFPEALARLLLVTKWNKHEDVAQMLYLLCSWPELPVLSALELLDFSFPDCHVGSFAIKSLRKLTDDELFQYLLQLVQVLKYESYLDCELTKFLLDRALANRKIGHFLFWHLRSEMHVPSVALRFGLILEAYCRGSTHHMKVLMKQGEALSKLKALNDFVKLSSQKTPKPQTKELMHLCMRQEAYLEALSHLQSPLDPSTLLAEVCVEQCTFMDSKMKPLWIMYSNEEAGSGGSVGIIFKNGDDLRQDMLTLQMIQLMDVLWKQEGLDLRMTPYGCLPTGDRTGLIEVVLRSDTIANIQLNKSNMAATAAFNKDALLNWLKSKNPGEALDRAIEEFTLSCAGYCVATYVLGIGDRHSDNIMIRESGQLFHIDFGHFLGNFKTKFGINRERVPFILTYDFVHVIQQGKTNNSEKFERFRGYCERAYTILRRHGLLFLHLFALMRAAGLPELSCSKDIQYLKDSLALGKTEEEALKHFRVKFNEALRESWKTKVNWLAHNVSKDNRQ

PI3K p110 beta/p85 alpha [5] = biological target: T2, PI3K p110 beta/p85 alpha (Homo sapiens, UniProt P42338); test: Inhibition of N-terminal His6-tagged recombinant full length human p110beta/untagged recombinant full length human p85alpha expressed in baculovirus infected Sf21 insect cells at 1 uM using PIP2 as substrate measured after 80 mins by transcreener fluorescence polarization assay relative to control
[6] = biological target: Phosphatidylinositol 4,5-bisphosphate 3-kinase catalytic subunit gamma isoform (Homo sapiens, UniProt P48736)
Description: Inhibition of recombinant human full-length His-tagged PI3K p110gamma expressed in baculovirus expression system using PIP2 as substrate measured after 80 mins by transcreener fluorescence polarization assay

[7] = test system: liver microsomes (Homo sapiens / Mus musculus); test: Drug metabolism in human and mouse liver microsomes assessed as oxidation of pyrrolidine linker at 1 uM measured after 30 mins in presence of NADPH-generating system; conditions: 0.5 h
[8] = Drug metabolism in human liver microsomes assessed as oxidation of pyrrolidine linker at 1 uM measured after 30 mins in presence of NADPH-generating system; format: ADME, Microsome; conditions: 0.5 h
PI3K p110 beta/p85 alpha [9] = biological target: T2, PI3K p110 beta/p85 alpha; test: Inhibition of N-terminal His6-tagged recombinant full length human p110beta/untagged recombinant full length human p85alpha expressed in baculovirus infected Sf21 insect cells using PIP2 as substrate measured after 80 mins by transcreener fluorescence polarization assay
[10] = Inhibition of PI3Kdelta in rat whole blood assessed as reduction in anti-IgD-stimulated CD86 expression on B-cells preincubated for 60 mins followed by anti-IgD stimulation and measured after overnight incubation by flow cytometry; format: tissue-based

T2 sequence (P27986 whole entry, canonical isoform): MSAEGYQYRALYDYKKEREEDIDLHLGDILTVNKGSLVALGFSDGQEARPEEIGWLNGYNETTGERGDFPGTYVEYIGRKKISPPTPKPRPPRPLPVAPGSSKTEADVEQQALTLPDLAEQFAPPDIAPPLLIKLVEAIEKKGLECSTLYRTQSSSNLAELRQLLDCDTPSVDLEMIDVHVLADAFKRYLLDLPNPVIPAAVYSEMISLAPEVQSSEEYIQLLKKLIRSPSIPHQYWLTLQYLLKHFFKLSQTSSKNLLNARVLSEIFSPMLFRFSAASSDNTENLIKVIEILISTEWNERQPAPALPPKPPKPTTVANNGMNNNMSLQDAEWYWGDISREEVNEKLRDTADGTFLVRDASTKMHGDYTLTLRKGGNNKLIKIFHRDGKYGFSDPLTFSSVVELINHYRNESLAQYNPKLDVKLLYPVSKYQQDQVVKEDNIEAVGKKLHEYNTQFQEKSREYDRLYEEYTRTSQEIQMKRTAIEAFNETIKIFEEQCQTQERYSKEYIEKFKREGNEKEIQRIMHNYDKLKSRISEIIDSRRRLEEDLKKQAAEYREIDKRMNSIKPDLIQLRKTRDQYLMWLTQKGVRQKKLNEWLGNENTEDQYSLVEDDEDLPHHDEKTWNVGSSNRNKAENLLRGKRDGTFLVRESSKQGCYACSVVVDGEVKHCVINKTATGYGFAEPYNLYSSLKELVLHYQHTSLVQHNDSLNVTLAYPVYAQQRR
T2 sequence (P42338 whole entry, canonical isoform): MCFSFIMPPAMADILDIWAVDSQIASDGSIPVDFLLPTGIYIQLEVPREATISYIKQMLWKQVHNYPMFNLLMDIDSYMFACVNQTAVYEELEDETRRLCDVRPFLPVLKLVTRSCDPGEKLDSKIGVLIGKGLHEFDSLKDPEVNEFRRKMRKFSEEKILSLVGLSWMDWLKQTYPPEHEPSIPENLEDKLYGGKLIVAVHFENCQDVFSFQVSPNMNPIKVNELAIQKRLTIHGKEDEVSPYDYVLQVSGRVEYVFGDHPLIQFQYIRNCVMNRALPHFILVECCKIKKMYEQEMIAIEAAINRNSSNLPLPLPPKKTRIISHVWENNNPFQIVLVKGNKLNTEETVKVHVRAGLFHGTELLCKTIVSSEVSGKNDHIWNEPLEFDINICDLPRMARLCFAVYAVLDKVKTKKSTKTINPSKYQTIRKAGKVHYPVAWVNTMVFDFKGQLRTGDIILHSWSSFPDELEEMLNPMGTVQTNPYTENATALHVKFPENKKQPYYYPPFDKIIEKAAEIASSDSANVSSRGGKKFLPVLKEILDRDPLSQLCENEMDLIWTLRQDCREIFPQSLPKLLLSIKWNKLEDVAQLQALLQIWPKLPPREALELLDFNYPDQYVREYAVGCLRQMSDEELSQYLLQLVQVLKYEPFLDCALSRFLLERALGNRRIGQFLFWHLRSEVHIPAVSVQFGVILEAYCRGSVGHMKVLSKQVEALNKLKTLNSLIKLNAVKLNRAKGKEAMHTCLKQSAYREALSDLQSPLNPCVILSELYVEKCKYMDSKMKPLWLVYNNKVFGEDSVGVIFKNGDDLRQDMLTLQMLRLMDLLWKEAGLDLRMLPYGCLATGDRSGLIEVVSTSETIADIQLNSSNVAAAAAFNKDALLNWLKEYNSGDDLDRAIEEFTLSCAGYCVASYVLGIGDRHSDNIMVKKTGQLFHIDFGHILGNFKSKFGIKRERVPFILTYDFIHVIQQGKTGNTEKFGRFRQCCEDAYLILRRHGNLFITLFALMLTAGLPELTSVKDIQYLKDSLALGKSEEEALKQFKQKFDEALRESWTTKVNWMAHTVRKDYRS
Chain of Phosphatidylinositol 4,5-bisphosphate 3-kinase catalytic subunit gamma isoform (P48736 whole entry, canonical isoform): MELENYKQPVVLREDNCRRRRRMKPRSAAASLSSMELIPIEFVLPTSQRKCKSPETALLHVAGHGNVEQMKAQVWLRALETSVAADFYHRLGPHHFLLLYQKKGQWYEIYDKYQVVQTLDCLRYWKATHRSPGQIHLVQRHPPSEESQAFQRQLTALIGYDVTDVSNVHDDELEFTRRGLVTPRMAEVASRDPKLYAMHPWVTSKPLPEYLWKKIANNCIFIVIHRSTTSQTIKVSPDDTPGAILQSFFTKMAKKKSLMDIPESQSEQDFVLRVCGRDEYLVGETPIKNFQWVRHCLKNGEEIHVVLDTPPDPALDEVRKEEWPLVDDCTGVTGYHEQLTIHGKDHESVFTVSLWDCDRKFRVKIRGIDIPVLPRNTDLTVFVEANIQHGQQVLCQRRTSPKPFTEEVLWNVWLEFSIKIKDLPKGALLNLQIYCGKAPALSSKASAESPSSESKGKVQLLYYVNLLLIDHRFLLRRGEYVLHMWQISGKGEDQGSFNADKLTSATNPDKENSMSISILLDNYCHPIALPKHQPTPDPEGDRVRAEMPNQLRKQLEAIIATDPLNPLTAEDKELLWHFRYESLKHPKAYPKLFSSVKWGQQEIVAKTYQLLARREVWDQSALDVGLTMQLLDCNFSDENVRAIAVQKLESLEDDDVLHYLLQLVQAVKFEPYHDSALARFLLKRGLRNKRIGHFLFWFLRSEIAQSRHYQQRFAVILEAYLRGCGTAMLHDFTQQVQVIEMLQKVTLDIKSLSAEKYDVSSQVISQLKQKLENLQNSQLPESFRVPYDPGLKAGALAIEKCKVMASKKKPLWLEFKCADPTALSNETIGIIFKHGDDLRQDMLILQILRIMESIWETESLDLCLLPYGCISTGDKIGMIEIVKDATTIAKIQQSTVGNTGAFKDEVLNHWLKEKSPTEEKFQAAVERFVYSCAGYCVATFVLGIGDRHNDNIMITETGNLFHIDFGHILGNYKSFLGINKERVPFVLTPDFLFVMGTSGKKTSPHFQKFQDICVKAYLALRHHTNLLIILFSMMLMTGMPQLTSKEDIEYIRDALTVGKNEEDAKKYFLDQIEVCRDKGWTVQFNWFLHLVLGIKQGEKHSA

SMILES	remaining at 0.5 h, 1 µM [1] [%]	remaining at 0.5 h, 1 µM [2] [%]	pIC50 [3]	pIC50 [4]	inhibition at 1 µM (PI3K p110 beta/p85 alpha [5]) [%]	other results
CC(=O)c1c[nH]c2ncnc(N3C[C@@H](F)C[C@H]3c3nn4ccc(Cl)c4c(=O)n3-c3ccccc3)c12	60.4	20.1	–	–	–	–
N#Cc1c[nH]c2ncnc(N3CCC[C@H]3c3nn4cccc4c(=O)n3-c3ccccc3)c12	19.1	2.8	7.40	8.52	47.7	pIC50 [6]: 7.72; Drug metabolism [7]: Metabolite_Detected; Drug metabolism [8]: Metabolite_Detected
Nc1ncc(C(=O)C(F)(F)F)c(N2CC[C@H]2c2nn3ccc(Cl)c3c(=O)n2-c2ccccc2)n1	–	–	–	–	–	pIC50 (PI3K p110 beta/p85 alpha [9]): < 6.00
C#Cc1cnc(N)nc1N1CC[C@H]1c1nn2ccc(Cl)c2c(=O)n1-c1ccccc1	–	–	–	–	22.7	–
C[C@H](Nc1ncnc2nc[nH]c12)c1cc2cccc(Cl)c2c(=O)n1-c1ccccc1 [DUVELISIB]	–	–	7.60	–	–	pIC50 [10]: 8.70
CC[C@H](Nc1ncnc2[nH]cnc12)c1nc2cccc(F)c2c(=O)n1-c1ccccc1 [IDELALISIB]	–	–	6.47	–	–	–

More lines, main results first:

remaining at 0.5 h, 1 µM [1] [%]	remaining at 0.5 h, 1 µM [2] [%]	pIC50 [3]	pIC50 [4]	inhibition at 1 µM (PI3K p110 beta/p85 alpha [5]) [%]	SMILES	other results
–	11.7	8.15	8.52	–	CC(=O)c1c[nH]c2ncnc(N3CCC[C@H]3c3nn4ccc(Cl)c4c(=O)n3-c3cccc(F)c3)c12	–
–	–	–	–	22.9	Nc1ncc(Cl)c(N2CC[C@H]2c2nn3ccc(Cl)c3c(=O)n2-c2ccccc2)n1	–
43.8	–	7.70	9.00	–	O=c1c2c(Cl)ccn2nc([C@@H]2C[C@H](F)CN2c2ncnc3[nH]cnc23)n1-c1ccccc1	–
23.5	–	7.66	8.52	–	N#Cc1cnc(N)nc1N1CCC[C@H]1c1nn2ccc(Cl)c2c(=O)n1-c1ccccc1	–
34.6	64.3	8.10	–	54.8	O=c1c2c(Cl)ccn2nc([C@@H]2CCCN2c2ncnc3[nH]cnc23)n1-c1cccc(F)c1	–
